Test results: the supplement of paper PMC10307832

Assays:
Test in all cases: relative viability (nuclei count vs DMSO), 5 days (fraction); higher = more cells survive
NCI-H460 = test system: NCI-H460
How it was run: (§1)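 Relative viability divides the nuclei count in treated wells by that in vehicle wells. Lung cancer cell lines were seeded in 1536-well plates, dosed by pin tool the next day, and fixed and stained after 5 days in one step with final 0.05% Triton X-100, 1% formaldehyde and 1 ug/ml Hoechst. Dosing was a single drug or a fixed anchor-drug dose plus five library-drug doses (not always all listed) in √10 steps, and values are medians of duplicate plates imaged at 4×.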

LK-2 = test system: LK-2
How it was run: as §1

LU99A = test system: LU99A
How it was run: as §1

NCI-H1793 = test system: NCI-H1793
How it was run: as §1

NCI-H2347 = test system: NCI-H2347
How it was run: as §1

COR-L23 = test system: COR-L23
How it was run: as §1

PC-14 = test system: PC-14
How it was run: as §1

A-427 = test system: A-427
How it was run: as §1

SW 900 = test system: SW 900
How it was run: as §1

SW 1573 = test system: SW 1573
How it was run: as §1

LCLC-103H = test system: LCLC-103H
How it was run: as §1

NCI-H596 = test system: NCI-H596
How it was run: as §1

LCLC-97TM1 = test system: LCLC-97TM1
How it was run: as §1

201T = test system: 201T
How it was run: as §1

H3255 = test system: H3255
How it was run: as §1

LC-2-ad = test system: LC-2-ad
How it was run: as §1

NCI-H1650 = test system: NCI-H1650
How it was run: as §1

NCI-H23 = test system: NCI-H23
How it was run: as §1

NCI-H727 = test system: NCI-H727
How it was run: as §1

HCC-44 = test system: HCC-44
How it was run: as §1

NCI-H2228 = test system: NCI-H2228
How it was run: as §1

Structure (SMILES): Cc1sc2c(c1C)C(c1ccc(Cl)cc1)=N[C@@H](CC(=O)OC(C)(C)C)c1nnc(C)n1-2 [JQ1] + O=C(c1cc(Cc2n[nH]c(=O)c3ccccc23)ccc1F)N1CCN(C(=O)C2CC2)CC1 [Olaparib] (partner 8 µM)
- relative viability (NCI-H460; first compound 0.04 µM): 0.43
- relative viability (NCI-H460; first compound 0.1265 µM): 0.336
- relative viability (NCI-H460; first compound 0.4 µM): 0.179
- relative viability (NCI-H460; first compound 1.265 µM): 0.124
- relative viability (NCI-H460; first compound 4 µM): 0.0676
- relative viability (LK-2; first compound 0.04 µM): 0.639
- relative viability (LK-2; first compound 0.1265 µM): 0.74
- relative viability (LK-2; first compound 0.4 µM): 0.409
- relative viability (LK-2; first compound 1.265 µM): 0.155
- relative viability (LK-2; first compound 4 µM): 0.15
- relative viability (LU99A; first compound 0.04 µM): 0.264
- relative viability (LU99A; first compound 0.4 µM): 0.169
- relative viability (LU99A; first compound 1.265 µM): 0.114
- relative viability (LU99A; first compound 4 µM): 0.111
- relative viability (NCI-H1793; first compound 0.04 µM): 0.882
- relative viability (NCI-H1793; first compound 0.1265 µM): 0.735
- relative viability (NCI-H1793; first compound 0.4 µM): 0.666
- relative viability (NCI-H1793; first compound 1.265 µM): 0.526
- relative viability (NCI-H1793; first compound 4 µM): 0.52
- relative viability (NCI-H2347; first compound 0.04 µM): 0.544
- relative viability (NCI-H2347; first compound 0.1265 µM): 0.557
- relative viability (NCI-H2347; first compound 0.4 µM): 0.477
- relative viability (NCI-H2347; first compound 1.265 µM): 0.435
- relative viability (NCI-H2347; first compound 4 µM): 0.409
- relative viability (COR-L23; first compound 0.04 µM): 0.357
- relative viability (COR-L23; first compound 0.1265 µM): 0.229
- relative viability (COR-L23; first compound 0.4 µM): 0.295
- relative viability (COR-L23; first compound 1.265 µM): 0.11
- relative viability (COR-L23; first compound 4 µM): 0.136
- relative viability (PC-14; first compound 0.04 µM): 0.271
- relative viability (PC-14; first compound 0.1265 µM): 0.153
- relative viability (PC-14; first compound 0.4 µM): 0.14
- relative viability (PC-14; first compound 1.265 µM): 0.0655
- relative viability (PC-14; first compound 4 µM): 0.0723
- relative viability (A-427; first compound 0.04 µM): 0.693
- relative viability (A-427; first compound 0.1265 µM): 0.72
- relative viability (A-427; first compound 0.4 µM): 0.83
- relative viability (A-427; first compound 1.265 µM): 0.709
- relative viability (A-427; first compound 4 µM): 0.418
- relative viability (SW 900; first compound 0.04 µM): 0.862
- relative viability (SW 900; first compound 0.1265 µM): 0.739
- relative viability (SW 900; first compound 0.4 µM): 0.479
- relative viability (SW 900; first compound 1.265 µM): 0.303
- relative viability (SW 900; first compound 4 µM): 0.22
- relative viability (SW 1573; first compound 0.04 µM): 0.428
- relative viability (SW 1573; first compound 0.1265 µM): 0.317
- relative viability (SW 1573; first compound 0.4 µM): 0.344
- relative viability (SW 1573; first compound 1.265 µM): 0.211
- relative viability (SW 1573; first compound 4 µM): 0.178
- relative viability (LCLC-103H; first compound 0.04 µM): 0.789
- relative viability (LCLC-103H; first compound 0.1265 µM): 0.714
- relative viability (LCLC-103H; first compound 0.4 µM): 0.605
- relative viability (LCLC-103H; first compound 1.265 µM): 0.528
- relative viability (LCLC-103H; first compound 4 µM): 0.432
- relative viability (NCI-H596; first compound 0.04 µM): 0.618
- relative viability (NCI-H596; first compound 0.1265 µM): 0.499
- relative viability (NCI-H596; first compound 0.4 µM): 0.367
- relative viability (NCI-H596; first compound 1.265 µM): 0.326
- relative viability (NCI-H596; first compound 4 µM): 0.321
- relative viability (LCLC-97TM1; first compound 0.04 µM): 0.354
- relative viability (LCLC-97TM1; first compound 0.1265 µM): 0.297
- relative viability (LCLC-97TM1; first compound 0.4 µM): 0.297
- relative viability (LCLC-97TM1; first compound 1.265 µM): 0.149
- relative viability (LCLC-97TM1; first compound 4 µM): 0.108
- relative viability (201T; first compound 0.04 µM): 0.871
- relative viability (201T; first compound 0.4 µM): 0.613
- relative viability (201T; first compound 1.265 µM): 0.498
- relative viability (201T; first compound 4 µM): 0.347
- relative viability (H3255; first compound 0.04 µM): 0.528
- relative viability (H3255; first compound 0.1265 µM): 0.492
- relative viability (H3255; first compound 0.4 µM): 0.439
- relative viability (H3255; first compound 1.265 µM): 0.305
- relative viability (H3255; first compound 4 µM): 0.264
- relative viability (LC-2-ad; first compound 0.04 µM): 0.701
- relative viability (LC-2-ad; first compound 0.1265 µM): 0.599
- relative viability (LC-2-ad; first compound 0.4 µM): 0.332
- relative viability (LC-2-ad; first compound 1.265 µM): 0.256
- relative viability (LC-2-ad; first compound 4 µM): 0.256
- relative viability (NCI-H1650; first compound 0.04 µM): 0.725
- relative viability (NCI-H1650; first compound 0.1265 µM): 0.669
- relative viability (NCI-H1650; first compound 0.4 µM): 0.476
- relative viability (NCI-H1650; first compound 1.265 µM): 0.21
- relative viability (NCI-H1650; first compound 4 µM): 0.149
- relative viability (NCI-H23; first compound 0.04 µM): 0.329
- relative viability (NCI-H23; first compound 0.1265 µM): 0.341
- relative viability (NCI-H23; first compound 0.4 µM): 0.162
- relative viability (NCI-H23; first compound 1.265 µM): 0.179
- relative viability (NCI-H23; first compound 4 µM): 0.127
- relative viability (NCI-H727; first compound 0.04 µM): 0.668
- relative viability (NCI-H727; first compound 0.1265 µM): 0.759
- relative viability (NCI-H727; first compound 0.4 µM): 0.599
- relative viability (NCI-H727; first compound 1.265 µM): 0.555
- relative viability (NCI-H727; first compound 4 µM): 0.497
- relative viability (HCC-44; first compound 0.04 µM): 0.978
- relative viability (HCC-44; first compound 0.1265 µM): 1.03
- relative viability (HCC-44; first compound 0.4 µM): 0.893
- relative viability (HCC-44; first compound 1.265 µM): 0.851
- relative viability (HCC-44; first compound 4 µM): 0.442
- relative viability (NCI-H2228; first compound 0.04 µM): 0.628
- relative viability (NCI-H2228; first compound 0.1265 µM): 0.434
- relative viability (NCI-H2228; first compound 0.4 µM): 0.356
- relative viability (NCI-H2228; first compound 1.265 µM): 0.123
- relative viability (NCI-H2228; first compound 4 µM): 0.181
